IC50 data for 17 compounds are collected here from US20250387400A1, “TYK2 INHIBITORS” (BIOGEN MA INC., priority 2022, published 2025).

Holding throughout (type): biochemical
The target in experiment [1] is T1, catalytic kinase (JH1) domain of human TYK2 (Homo sapiens, UniProt P29597).
T1 construct: recombinantly generated catalytic kinase (also known as JH1) domain of human JAK1, JAK2, JAK3 and TYK2
T1 sequence (P29597 897-1176 limits assumed): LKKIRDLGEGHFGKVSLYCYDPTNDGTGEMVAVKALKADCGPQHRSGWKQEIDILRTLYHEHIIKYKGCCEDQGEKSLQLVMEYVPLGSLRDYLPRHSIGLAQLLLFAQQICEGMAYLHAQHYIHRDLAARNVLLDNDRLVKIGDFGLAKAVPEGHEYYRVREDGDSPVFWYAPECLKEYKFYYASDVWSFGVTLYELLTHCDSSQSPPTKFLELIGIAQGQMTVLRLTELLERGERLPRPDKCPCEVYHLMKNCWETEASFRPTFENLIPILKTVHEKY
Nature of the experiment: ADP-Glo kinase assay, TYK2 kinase domain. As for the experimental part:
(§1) As summarized in Table 3 below, compounds of the disclosure were assessed for their ability to inhibit TYK2, JAK1, JAK2, and JAK3 activity.
(§2) The kinase activity of recombinantly generated catalytic kinase (also known as JH1) domain of human JAK1, JAK2, JAK3 and TYK2 were evaluated in a plate-based assay using the ADP-Glo™ Kinase Assay platform. […] The reactions proceed for 100 minutes and the catalytic activity is quantified by first depleting the unused ATP, converting the hydrolyzed ADP into ATP to generate luminescence in a luciferase reaction; which is the basis of the ADP-Glo platform. Compounds are tested at either 10 μM or 1 μM top concentration, 11 points of 3-fold dilution. The data is normalized and the percent activity versus log concentration of compound is fitted with a 4-parameter logistic model to generate a curve and an IC50 value.
In general terms: ADP-Glo first removes unused ATP, then detects ADP through luciferase.

In experiment [2] the target is T2, catalytic kinase (JH1) domain of human JAK1 (Homo sapiens, UniProt P23458).
T2 construct: 4 nM of recombinant JAK1 kinase domain is used to phosphorylate
T2 sequence (P23458 875-1153 limits assumed): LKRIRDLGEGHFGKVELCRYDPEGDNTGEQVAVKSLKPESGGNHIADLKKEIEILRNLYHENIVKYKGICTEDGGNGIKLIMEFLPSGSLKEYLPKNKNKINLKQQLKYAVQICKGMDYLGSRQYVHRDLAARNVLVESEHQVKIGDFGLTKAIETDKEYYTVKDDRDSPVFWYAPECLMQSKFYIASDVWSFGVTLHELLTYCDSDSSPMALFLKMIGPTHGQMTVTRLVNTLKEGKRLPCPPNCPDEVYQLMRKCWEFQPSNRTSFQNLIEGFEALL
The experiment in a line: ADP-Glo kinase assay, JAK1 kinase domain. As for the experimental part:
as §1, §2

The target of experiment [3] is T3, catalytic kinase (JH1) domain of human JAK2 (Homo sapiens, UniProt O60674).
T3 construct: Catalytic activities of recombinant JAK2, JAK3 and TYK2 kinase domain
T3 sequence (O60674 849-1124 limits assumed): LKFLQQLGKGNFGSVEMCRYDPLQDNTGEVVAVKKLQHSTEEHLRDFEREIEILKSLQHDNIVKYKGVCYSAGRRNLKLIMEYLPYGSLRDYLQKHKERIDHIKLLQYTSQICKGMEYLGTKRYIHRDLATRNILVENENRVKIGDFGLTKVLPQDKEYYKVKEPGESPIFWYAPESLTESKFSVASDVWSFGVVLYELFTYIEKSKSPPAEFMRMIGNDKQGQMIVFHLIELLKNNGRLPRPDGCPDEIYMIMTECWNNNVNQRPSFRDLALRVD
The experiment in a line: ADP-Glo kinase assay, JAK2 kinase domain. Here is the method:
as §1, §2

The target of experiment [4] is T4, catalytic kinase (JH1) domain of human JAK3 (Homo sapiens, UniProt P52333).
T4 construct: Catalytic activities of recombinant JAK2, JAK3 and TYK2 kinase domain
T4 sequence (P52333 822-1111 limits assumed): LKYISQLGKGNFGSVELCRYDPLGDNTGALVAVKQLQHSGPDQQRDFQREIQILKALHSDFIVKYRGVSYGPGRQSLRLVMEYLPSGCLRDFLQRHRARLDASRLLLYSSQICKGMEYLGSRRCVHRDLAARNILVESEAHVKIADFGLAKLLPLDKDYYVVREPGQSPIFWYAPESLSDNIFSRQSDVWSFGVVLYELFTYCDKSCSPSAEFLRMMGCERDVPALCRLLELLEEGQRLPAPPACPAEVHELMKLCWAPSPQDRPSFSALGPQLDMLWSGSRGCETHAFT
Nature of the experiment: ADP-Glo kinase assay, JAK3 kinase domain. As for the experimental part: as §1, §2

Where [5] appears, read: 2 nM recombinant TYK2 kinase domain, 50 μM JAK3-974 peptide, 10 μM ATP, 100 minutes, read-out: TYK2 biochem IC50 (nM) Mean.
Where [6] appears, read: 4 nM recombinant JAK1 kinase domain, 50 μM JAK3-342 peptide, 35 μM ATP, 100 minutes, read-out: JAK1 biochem IC50 (nM) Mean.
Setting [7] is: 0.2 nM recombinant JAK2 kinase domain, 50 μM JAK3-974 peptide, 15 μM ATP, 100 minutes, read-out: JAK2 biochem IC50 (nM) Mean.
Where [8] appears, read: 0.3 nM recombinant JAK3 kinase domain, 50 μM JAK3-974 peptide, 4 μM ATP, 100 minutes, read-out: JAK3 biochem IC50 (nM) Mean.

Read-outs that look alike come from different tables or passages of the source. A value given as a limit tells only on which side of the number the result lay.

With `Cn1cc(-c2nc3c(N4CC5CCC(C4)N5[C@H]4CC[C@H]4O)ccnc3[nH]2)cn1` (racemic) [Example 8, (1RS,2SR)-2-(3-(2-(1-methyl-1H-pyrazol-4-yl)-3H-imidazo[4,5-b]pyridin-7-yl)-3,8-diazabicyclo[3.2.1]octan-8-yl)cyclobutan-1-ol], the IC50 in experiment [1] (setting [5]) is 830 nM; in experiment [2] (setting [6]) it was 7100 nM; in experiment [3] (setting [7]), 3150 nM; in experiment [4] (setting [8]) it was more than 10000 nM.
In the case of `Cn1cc(-c2cc3c(N4CC5CCC(C4)N5[C@H]4CC[C@@H]4O)ccnn3c2)cn1` (racemic) [Example 49, rac-(1S,2S)-2-(3-(6-(1-methyl-1H-pyrazol-4-yl)pyrrolo[1,2-b]pyridazin-4-yl)-3,8-diazabicyclo[3.2.1]octan-8-yl)cyclobutan-1-ol], the IC50 in experiment [1] (setting [5]) was 425 nM; in experiment [2] (setting [6]) it was more than 10000 nM; in experiment [3] (setting [7]), 7700 nM; in experiment [4] (setting [8]), more than 10000 nM.
As for `Cn1cc(-c2cc3c(N4CC5CCC(C4)N5[C@H]4CC[C@H]4O)ccnn3c2)cn1` (racemic) [Example 50, rac-(1R,2S)-2-(3-(6-(1-methyl-1H-pyrazol-4-yl)pyrrolo[1,2-b]pyridazin-4-yl)-3,8-diazabicyclo[3.2.1]octan-8-yl)cyclobutan-1-ol], the IC50 was 505 nM in experiment [1] (setting [5]), more than 10000 nM in experiment [2] (setting [6]), 7350 nM in experiment [3] (setting [7]) and more than 10000 nM in experiment [4] (setting [8]).
Take `CO[C@H]1CC[C@@H]1N1C2CCC1CN(c1ccnn3cc(-c4cnn(C)c4)cc13)C2` (racemic) [Example 51, Rac-4-(8-((1S,2S)-2-methoxycyclobutyl)-3,8-diazabicyclo[3.2.1]octan-3-yl)-6-(1-methyl-1H-pyrazol-4-yl)pyrrolo[1,2-b]pyridazine]: the IC50 in experiment [1] was 745 nM; in experiment [2], more than 10000 nM; in experiment [3], 6050 nM; in experiment [4] it was more than 10000 nM.
Turning to `Cn1cc(-c2nc3c(N4CC5CCC(C4)N5[C@H]4CC[C@@H]4O)ccnc3[nH]2)cn1` (single isomer, unassigned) [Example 7, (1RS,2RS)-2-(3-(2-(1-methyl-1H-pyrazol-4-yl)-3H-imidazo[4,5-b]pyridin-7-yl)-3,8-diazabicyclo[3.2.1]octan-8-yl)cyclobutan-1-ol], the IC50 in experiment [1] (setting [5]) was 610 nM; in experiment [2] (setting [6]), more than 10000 nM; in experiment [3] (setting [7]), 3300 nM; in experiment [4] (setting [8]) it was more than 10000 nM.
Turning to `Cn1cc(-c2cc3c(N4CC5CCC(C4)N5[C@H]4CCC45COC5)ccnn3c2)cn1` (single isomer, unassigned) [Example 40], the IC50 in experiment [1] was 320 nM; in experiment [2], more than 10000 nM; in experiment [3], 1900 nM; in experiment [4], more than 10000 nM.
With `Cn1cc(-c2cc3c(N4CC5CCC(C4)N5[C@@H]4CCC45COC5)ccnn3c2)cn1` (single isomer, unassigned) [Example 41], the IC50 in experiment [1] was 71 nM; in experiment [2], 2200 nM; in experiment [3] it was 420 nM; in experiment [4], 8450 nM.
The corresponding values for `Cn1cc(-c2cc3c(N4CC5CCC(C4)N5[C@H]4C[C@H](C#N)C4(C)C)ccnn3c2)cn1` (single isomer, unassigned) [Example 46] are 34 nM, 955 nM, 215 nM and 1850 nM.
In the case of `Cn1cc(-c2cc3c(N4CC5CCC(C4)N5[C@H]4C[C@@H](C#N)C4(C)C)ccnn3c2)cn1` (single isomer, unassigned) [Example 47], the IC50 was found to be 2.33 nM in experiment [1], 72.3 nM in experiment [2], 17.3 nM in experiment [3] and 130 nM in experiment [4].
For `Cn1cc(-c2cc3c(N4CC5CCC(C4)N5[C@@H]4C[C@H](C#N)C4(C)C)ccnn3c2)cn1` (single isomer, unassigned) [Example 48], the IC50 in experiment [1] turned out to be 35 nM; in experiment [2] it was 925 nM; in experiment [3], 180 nM; in experiment [4], 1350 nM.
For the compound `Cn1cc(-c2nc3c(N4CC5CCC(C4)N5[C@H]4C[C@](C)(C#N)C4)ccnc3[nH]2)cn1` [Example 1, (1R,3r)-1-methyl-3-(3-(2-(1-methyl-1H-pyrazol-4-yl)-3H-imidazo[4,5-b]pyridin-7-yl)-3,8-diazabicyclo[3.2.1]octan-8-yl)cyclobutane-1-carbonitrile], the IC50 turned out to be 13.4 nM in experiment [1] (setting [5]), 175 nM in experiment [2] (setting [6]), 102 nM in experiment [3] (setting [7]) and 850 nM in experiment [4] (setting [8]).
In the case of `Cn1cc(-c2nc3c(N4CC5CCC(C4)N5[C@H]4C[C@@](C)(C#N)C4)ccnc3[nH]2)cn1` [Example 2, (1S,3s)-1-methyl-3-(3-(2-(1-methyl-1H-pyrazol-4-yl)-3H-imidazo[4,5-b]pyridin-7-yl)-3,8-diazabicyclo[3.2.1]octan-8-yl)cyclobutane-1-carbonitrile], the IC50 is 1.2 nM in experiment [1] (setting [5]), 14.7 nM in experiment [2] (setting [6]), 9 nM in experiment [3] (setting [7]) and 68 nM in experiment [4] (setting [8]).
On to `Cn1cc(-c2nc3c(N4CC5CCC(C4)N5[C@H]4C[C@H](C#N)C4)ccnc3[nH]2)cn1` [Example 3, (1R,3r)-3-(3-(2-(1-methyl-1H-pyrazol-4-yl)-3H-imidazo[4,5-b]pyridin-7-yl)-3,8-diazabicyclo[3.2.1]octan-8-yl)cyclobutane-1-carbonitrile], for which the IC50 came to 44 nM in experiment [1] (setting [5]), 430 nM in experiment [2] (setting [6]), 236 nM in experiment [3] (setting [7]) and 1450 nM in experiment [4] (setting [8]).
For `Cn1cc(-c2nc3c(N4CC5CCC(C4)N5[C@H]4C[C@@H](C#N)C4)ccnc3[nH]2)cn1` [Example 4, (1S,3s)-3-(3-(2-(1-methyl-1H-pyrazol-4-yl)-3H-imidazo[4,5-b]pyridin-7-yl)-3,8-diazabicyclo[3.2.1]octan-8-yl)cyclobutane-1-carbonitrile] the same measures were 2.47 nM, 18.7 nM, 9.93 nM and 65.3 nM.
Take `CO[C@H]1C[C@H](N2C3CCC2CN(c2ccnc4[nH]c(-c5cnn(C)c5)nc24)C3)C1` [Example 5, 7-(8-((1r,3R)-3-methoxycyclobutyl)-3,8-diazabicyclo[3.2.1]octan-3-yl)-2-(1-methyl-1H-pyrazol-4-yl)-3H-imidazo[4,5-b]pyridine]: the IC50 in experiment [1] (setting [5]) was 145 nM; in experiment [2] (setting [6]) it was 900 nM; in experiment [3] (setting [7]) it was 870 nM; in experiment [4] (setting [8]) it was 9700 nM.
`CO[C@H]1C[C@@H](N2C3CCC2CN(c2ccnc4[nH]c(-c5cnn(C)c5)nc24)C3)C1` [Example 6, 7-(8-((1s,3S)-3-methoxycyclobutyl)-3,8-diazabicyclo[3.2.1]octan-3-yl)-2-(1-methyl-1H-pyrazol-4-yl)-3H-imidazo[4,5-b]pyridine]: the IC50 in experiment [1] (setting [5]) was 305 nM; in experiment [2] (setting [6]), 1800 nM; in experiment [3] (setting [7]) it was 1150 nM; in experiment [4] (setting [8]) it was more than 10000 nM.
With `Cn1cc(-c2nc3c(N4CC5CCC(C4)N5C4COC4)ccnc3[nH]2)cn1` [Example 9, 2-(1-methyl-1H-pyrazol-4-yl)-7-(8-(oxetan-3-yl)-3,8-diazabicyclo[3.2.1]octan-3-yl)-3H-imidazo[4,5-b]pyridine], the IC50 in experiment [1] is 42.5 nM; in experiment [2] it was 275 nM; in experiment [3] it was 220 nM; in experiment [4], more than 1000 nM.

As a reminder, the IC50 is the concentration that inhibits the measured activity by half.
